Laboratory results taken from patent US9073833B1, “Oxime-based compound, pharmaceutical composition containing the same and method for preparing the same” (Chang Gung University, priority 2014, dated 2015).

Key:
[1] = tested on: acute lung injury induced by LPS; assay: LPS-induced acute lung injury: tissue pathological examination of lung; type: in vivo, mouse (C57BL/6); settings: 100 mg/kg intraperitoneal; 6 hours after LPS; H&E, 400×
Protocol: The left lung tissue of the mice from each group was rinsed with PBS and was fixed using a fixating solution (10% paraformaldehyde prepared in PBS) for 24 hours, followed by subjecting to ethanol dehydration treatment. The dehydrated tissue was then embedded in paraffin and sliced, thereby obtaining a sample with 4 to 6 μm thickness. The paraffin was then removed from the sample. The tissue was then stained with hematoxylin and eosin, was observed using an optical microscope (IX81, Olympus) at 400× magnification, and an image thereof was captured using a digital camera (DP72, Olympus).

[2] = tested on: acute lung injury induced by LPS; assay: LPS-induced acute lung injury: myeloperoxidase (MPO) activity in lung tissue; settings: 100 mg/kg intraperitoneal, 60 minutes before LPS; 6 hours after LPS
[3] = tested on: foot edema induced by human neutrophil elastase; assay: Foot edema induced by human neutrophil elastase in mice
[4] = target: human neutrophil elastase (Homo sapiens (Human), UniProt P08246); assay: Inhibition of human neutrophil elastase activity (MeO-Suc-Ala-Ala-Pro-Val-p-nitroanilide, OD405); type: biochemical; settings: mean ± SEM (n = 3), 30° C., 30 minutes
Chain of human neutrophil elastase (P08246 30-267): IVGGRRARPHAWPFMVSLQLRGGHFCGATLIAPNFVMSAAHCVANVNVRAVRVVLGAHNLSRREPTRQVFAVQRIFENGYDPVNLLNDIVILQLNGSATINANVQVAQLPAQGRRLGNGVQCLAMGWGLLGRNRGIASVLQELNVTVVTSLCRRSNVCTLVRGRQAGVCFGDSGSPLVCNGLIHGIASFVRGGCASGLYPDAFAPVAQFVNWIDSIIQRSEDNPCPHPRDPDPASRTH

SMILES	lung histology (alveolar edema, interstitial lung edema, leukocyte infiltration) [1]	MPO activity in lung tissue vs pathological control group [2]	edema degree (change in foot thickness) vs pathological control group ([3]; 50 mg/kg and 100 mg/kg intraperitoneal, 60 minutes before elastase, 10th-240th minute)	reduction of edema degree compared with Sivelestat ([3]; 100 mg/kg intraperitoneal, Sivelestat 100 mg/kg)	IC50 [4] [µM]
C/C(=N\O)c1ccccc1NS(=O)(=O)c1ccc(OC(=O)C(C)(C)C)cc1 [Compound 1, (E)-4-(N-(2-(1(hydroxyimino)ethyl)phenyl)sulfamoyl)phenyl pivalate]	minor alveolar edema, interstitial lung edema, and leukocyte infiltration	significantly reduced MPO activity	relatively lower edema degree	superior effect in reduction of edema degree to Sivelestat	–
C/C(=N\OCCCO)c1ccccc1NS(=O)(=O)c1ccc(OC(=O)C(C)(C)C)cc1 [Compound 7, (E)-4-(N-(2-(1-(3-hydroxypropoxyimino)ethyl)phenyl)sulfamoyl)phenyl pivalate]	–	–	–	–	159 ± 15.5
